We go through four compounds from PubChem BioAssay (NCI).

SMILES strings stand for the structures.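 Where inhibition never reached the appropriate level, the endpoint shown equals the highest concentration tested. Otherwise, values were interpolated linearly from a five-concentration, 48-hour dose response in 96-well plates. TGI is the concentration that stops growth completely.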 Some results are limits rather than exact numbers.

The test system of the first assay is HOP-92 NSCLC. Put plainly: NCI-60 cell line screen, 48 h.
As for `O=[N+]([O-])/C(C(Cl)=C(Cl)Cl)=C(/Nc1ccccc1)SCc1ccccc1`, the TGI worked out at 60.5 µM.

For the compound `COc1cc(N(CCC#N)CCC#N)ccc1/C(N=Nc1ccccc1C)=N\NC(=O)c1ccc(C)cc1`, the TGI is more than 100 µM.

For `O=C(Oc1ccccc1)N1c2ccccc2[C@@]23O[C@]24CCC[C@H]3C#C/C=C\C#C[C@H]14`, the TGI was 27 µM.

Another assay concerns MDA-MB-435. The assay is described as follows: NCI-60 cell line screen, 48 h.
`CC1C[C@]2(C)C(=NCCN)Nc3ccccc3[C@@H]2N(C)c2ccccc21` (stereo not given in full): the TGI came out at 22.7 µM.

Compound `O=[N+]([O-])/C(C(Cl)=C(Cl)Cl)=C(/Nc1ccccc1)SCc1ccccc1` yielded a TGI of 31.7 µM.

In turn, `COc1cc(N(CCC#N)CCC#N)ccc1/C(N=Nc1ccccc1C)=N\NC(=O)c1ccc(C)cc1` gave a TGI of more than 100 µM.

For `O=C(Oc1ccccc1)N1c2ccccc2[C@@]23O[C@]24CCC[C@H]3C#C/C=C\C#C[C@H]14`, the TGI is 36.7 µM.

Another assay deals with OVCAR-3 ovarian. Put plainly: NCI-60 cell line screen, 48 h.
As for `CC1C[C@]2(C)C(=NCCN)Nc3ccccc3[C@@H]2N(C)c2ccccc21` (stereo not given in full), the TGI is 23.7 µM.

For the compound `O=[N+]([O-])/C(C(Cl)=C(Cl)Cl)=C(/Nc1ccccc1)SCc1ccccc1`, the TGI was 28.7 µM.

On to `COc1cc(N(CCC#N)CCC#N)ccc1/C(N=Nc1ccccc1C)=N\NC(=O)c1ccc(C)cc1`, for which the TGI was more than 100 µM.

`O=C(Oc1ccccc1)N1c2ccccc2[C@@]23O[C@]24CCC[C@H]3C#C/C=C\C#C[C@H]14` returned a TGI of 26.1 µM.

The subject of another assay is UACC-257 melanoma. Put plainly: NCI-60 cell line screen, 48 h.
As for `CC1C[C@]2(C)C(=NCCN)Nc3ccccc3[C@@H]2N(C)c2ccccc21` (stereo not given in full), the TGI came out at 14.8 µM.

`O=[N+]([O-])/C(C(Cl)=C(Cl)Cl)=C(/Nc1ccccc1)SCc1ccccc1` registered a TGI of 39.5 µM.

The compound `COc1cc(N(CCC#N)CCC#N)ccc1/C(N=Nc1ccccc1C)=N\NC(=O)c1ccc(C)cc1` had a TGI of more than 100 µM.

`O=C(Oc1ccccc1)N1c2ccccc2[C@@]23O[C@]24CCC[C@H]3C#C/C=C\C#C[C@H]14` returned a TGI of 28.7 µM.

For the next assay, the system named is MDA-MB-231 breast. The assay is described as follows: NCI-60 cell line screen, 48 h.
Take `CC1C[C@]2(C)C(=NCCN)Nc3ccccc3[C@@H]2N(C)c2ccccc21` (stereo not given in full): the TGI was determined as 21.1 µM.

`O=[N+]([O-])/C(C(Cl)=C(Cl)Cl)=C(/Nc1ccccc1)SCc1ccccc1` showed a TGI of 36.4 µM.

`COc1cc(N(CCC#N)CCC#N)ccc1/C(N=Nc1ccccc1C)=N\NC(=O)c1ccc(C)cc1` displayed a TGI of more than 100 µM.

As for `O=C(Oc1ccccc1)N1c2ccccc2[C@@]23O[C@]24CCC[C@H]3C#C/C=C\C#C[C@H]14`, the TGI stood at 24.8 µM.

A further assay deals with NCI-H23 lung. Put plainly: NCI-60 cell line screen, 48 h.
In turn, `CC1C[C@]2(C)C(=NCCN)Nc3ccccc3[C@@H]2N(C)c2ccccc21` (stereo not given in full) returned a TGI of 31.4 µM.

Turning to `O=[N+]([O-])/C(C(Cl)=C(Cl)Cl)=C(/Nc1ccccc1)SCc1ccccc1`, the TGI came to 40.5 µM.

As for `COc1cc(N(CCC#N)CCC#N)ccc1/C(N=Nc1ccccc1C)=N\NC(=O)c1ccc(C)cc1`, the TGI was more than 100 µM.

`O=C(Oc1ccccc1)N1c2ccccc2[C@@]23O[C@]24CCC[C@H]3C#C/C=C\C#C[C@H]14` came in with a TGI of 28.7 µM.

A further assay deals with MOLT-4 leukemia. The assay is described as follows: NCI-60 cell line screen, 48 h.
For `CC1C[C@]2(C)C(=NCCN)Nc3ccccc3[C@@H]2N(C)c2ccccc21` (stereo not given in full), the TGI is more than 100 µM.

With `O=[N+]([O-])/C(C(Cl)=C(Cl)Cl)=C(/Nc1ccccc1)SCc1ccccc1`, the TGI is 37.3 µM.

In turn, `COc1cc(N(CCC#N)CCC#N)ccc1/C(N=Nc1ccccc1C)=N\NC(=O)c1ccc(C)cc1` had a TGI of more than 100 µM.

`O=C(Oc1ccccc1)N1c2ccccc2[C@@]23O[C@]24CCC[C@H]3C#C/C=C\C#C[C@H]14` had a TGI of more than 100 µM.

A further assay deals with NCI-H460 lung. Put plainly: NCI-60 cell line screen, 48 h.
Regarding `CC1C[C@]2(C)C(=NCCN)Nc3ccccc3[C@@H]2N(C)c2ccccc21` (stereo not given in full), the TGI amounted to 24 µM.

Compound `O=[N+]([O-])/C(C(Cl)=C(Cl)Cl)=C(/Nc1ccccc1)SCc1ccccc1` showed a TGI of 42.8 µM.

As to `COc1cc(N(CCC#N)CCC#N)ccc1/C(N=Nc1ccccc1C)=N\NC(=O)c1ccc(C)cc1`, the TGI was more than 100 µM.

For `O=C(Oc1ccccc1)N1c2ccccc2[C@@]23O[C@]24CCC[C@H]3C#C/C=C\C#C[C@H]14`, the TGI was 11.4 µM.

The subject of another assay is OVCAR-8 ovarian. Put plainly: NCI-60 cell line screen, 48 h.
For the compound `CC1C[C@]2(C)C(=NCCN)Nc3ccccc3[C@@H]2N(C)c2ccccc21` (stereo not given in full), the TGI was 27.9 µM.

As for `O=[N+]([O-])/C(C(Cl)=C(Cl)Cl)=C(/Nc1ccccc1)SCc1ccccc1`, the TGI stood at 34.8 µM.

In turn, `COc1cc(N(CCC#N)CCC#N)ccc1/C(N=Nc1ccccc1C)=N\NC(=O)c1ccc(C)cc1` showed a TGI of more than 100 µM.

`O=C(Oc1ccccc1)N1c2ccccc2[C@@]23O[C@]24CCC[C@H]3C#C/C=C\C#C[C@H]14` had a TGI of 24.8 µM.

Another assay deals with ACHN renal. Put plainly: NCI-60 cell line screen, 48 h.
`CC1C[C@]2(C)C(=NCCN)Nc3ccccc3[C@@H]2N(C)c2ccccc21` (stereo not given in full) had a TGI of 29.9 µM.

The compound `O=[N+]([O-])/C(C(Cl)=C(Cl)Cl)=C(/Nc1ccccc1)SCc1ccccc1` gave a TGI of 77.4 µM.

A further assay deals with RPMI-8226 leukemia. Put plainly: NCI-60 cell line screen, 48 h.
On to `CC1C[C@]2(C)C(=NCCN)Nc3ccccc3[C@@H]2N(C)c2ccccc21` (stereo not given in full), for which the TGI was 47.4 µM.

Regarding `O=[N+]([O-])/C(C(Cl)=C(Cl)Cl)=C(/Nc1ccccc1)SCc1ccccc1`, the TGI worked out at 37.7 µM.

Turning to `O=C(Oc1ccccc1)N1c2ccccc2[C@@]23O[C@]24CCC[C@H]3C#C/C=C\C#C[C@H]14`, the TGI was determined as 32.9 µM.

A further assay has as its system SK-OV-3 ovarian. The assay is described as follows: NCI-60 cell line screen, 48 h.
On to `O=[N+]([O-])/C(C(Cl)=C(Cl)Cl)=C(/Nc1ccccc1)SCc1ccccc1`, for which the TGI was more than 100 µM.

The compound `COc1cc(N(CCC#N)CCC#N)ccc1/C(N=Nc1ccccc1C)=N\NC(=O)c1ccc(C)cc1` yielded a TGI of more than 100 µM.

In turn, `O=C(Oc1ccccc1)N1c2ccccc2[C@@]23O[C@]24CCC[C@H]3C#C/C=C\C#C[C@H]14` displayed a TGI of 17.1 µM.

For the next assay, the system named is UACC-62 melanoma. The assay is described as follows: NCI-60 cell line screen, 48 h.
On to `CC1C[C@]2(C)C(=NCCN)Nc3ccccc3[C@@H]2N(C)c2ccccc21` (stereo not given in full), for which the TGI amounted to 28.1 µM.

For the compound `O=[N+]([O-])/C(C(Cl)=C(Cl)Cl)=C(/Nc1ccccc1)SCc1ccccc1`, the TGI was 44.6 µM.

`COc1cc(N(CCC#N)CCC#N)ccc1/C(N=Nc1ccccc1C)=N\NC(=O)c1ccc(C)cc1` registered a TGI of more than 100 µM.

Consider `O=C(Oc1ccccc1)N1c2ccccc2[C@@]23O[C@]24CCC[C@H]3C#C/C=C\C#C[C@H]14`, for which the TGI is 23.6 µM.

The next assay deals with COLO 205 colon. Put plainly: NCI-60 cell line screen, 48 h.
For the compound `CC1C[C@]2(C)C(=NCCN)Nc3ccccc3[C@@H]2N(C)c2ccccc21` (stereo not given in full), the TGI came to 5.14 µM.

With `O=[N+]([O-])/C(C(Cl)=C(Cl)Cl)=C(/Nc1ccccc1)SCc1ccccc1`, the TGI stood at 42.4 µM.

In the case of `COc1cc(N(CCC#N)CCC#N)ccc1/C(N=Nc1ccccc1C)=N\NC(=O)c1ccc(C)cc1`, the TGI is more than 100 µM.

Compound `O=C(Oc1ccccc1)N1c2ccccc2[C@@]23O[C@]24CCC[C@H]3C#C/C=C\C#C[C@H]14` gave a TGI of 28 µM.

A further assay relates to SNB-19 CNS. Put plainly: NCI-60 cell line screen, 48 h.
As for `CC1C[C@]2(C)C(=NCCN)Nc3ccccc3[C@@H]2N(C)c2ccccc21` (stereo not given in full), the TGI turned out to be 27.7 µM.

For the compound `O=[N+]([O-])/C(C(Cl)=C(Cl)Cl)=C(/Nc1ccccc1)SCc1ccccc1`, the TGI turned out to be 58.4 µM.

For `COc1cc(N(CCC#N)CCC#N)ccc1/C(N=Nc1ccccc1C)=N\NC(=O)c1ccc(C)cc1`, the TGI was more than 100 µM.

Compound `O=C(Oc1ccccc1)N1c2ccccc2[C@@]23O[C@]24CCC[C@H]3C#C/C=C\C#C[C@H]14` displayed a TGI of 29.1 µM.
